Target: T1, human EP1 receptor (Homo sapiens, UniProt P34995)
T1 construct: expressed in transfected cells; host or cells: CHO-K1 cells (membrane fraction)
T1 sequence (P34995 1-402): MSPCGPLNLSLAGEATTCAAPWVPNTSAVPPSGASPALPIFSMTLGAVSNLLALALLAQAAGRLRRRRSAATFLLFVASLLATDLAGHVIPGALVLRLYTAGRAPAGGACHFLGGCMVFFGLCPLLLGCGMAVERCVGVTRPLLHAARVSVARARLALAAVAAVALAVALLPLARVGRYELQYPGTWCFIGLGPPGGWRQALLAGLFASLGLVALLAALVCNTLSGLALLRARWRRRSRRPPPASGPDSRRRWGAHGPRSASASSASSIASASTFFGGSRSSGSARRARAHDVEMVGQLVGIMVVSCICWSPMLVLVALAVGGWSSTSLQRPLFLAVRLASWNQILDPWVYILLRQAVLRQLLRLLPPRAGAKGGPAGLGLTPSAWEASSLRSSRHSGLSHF
Test: human EP1 calcium mobilization assay (FLIPR, PGE2-induced [Ca2+]i)
Type: cell-based
Conditions: CHO-K1 cells transfected with EP1 cDNA; antagonism of PGE2; averages of a number of experiments
Method: Briefly, the antagonist properties of compounds are assessed by their ability to inhibit the mobilization of intracellular calcium ([Ca^2+]i) in response to activation of EP1 or EP3 receptors by the natural agonist hormone prostaglandin E2 (PGE2). Increasing concentrations of antagonist reduce the amount of calcium that a given concentration of PGE2 can mobilize. The net effect is to displace the PGE2 concentration-effect curve to higher concentrations of PGE2. The amount of calcium produced is assessed using a calcium-sensitive fluorescent dye such as Fluo-4, AM and a suitable instrument such as a Fluorimetric Imaging Plate Reader (FLIPR). Increasing amounts of [Ca^2+]i produced by receptor activation increase the amount of fluorescence produced by the dye and give rise to an increasing signal. The signal may be detected using the FLIPR instrument and the data generated may be analyzed with suitable curve-fitting software.
The human EP1 or EP3 calcium mobilization assay (hereafter referred to as ‘the calcium assay’) utilises Chinese hamster ovary-K1 (CHO—K1) cells into which a stable (PClN; BioTechniques 20 (1996): 102-110) vector containing either EP1 or EP3 cDNA has previously been transfected. Cells are cultured in suitable flasks containing culture medium such as DMEM:F-12 supplemented with 10% v/v foetal calf serum, 2 mM L-glutamine, 0.25 mg/ml geneticin, 100 μM flurbiprofen and 10 μg/ml puromycin.
For assay, cells are harvested using a proprietary reagent that dislodges cells such as Versene. Cells are re-suspended in a suitable quantity of fresh culture media for introduction into a 384-well plate. Following incubation for 24 hours at 37° C. the culture media is replaced with a medium containing Fluo-4 and the detergent pluronic acid, and a further incubation takes place. Concentrations of compounds are then added to the plate in order to construct concentration-effect curves. This may be performed on the FLIPR in order to assess the agonist properties of the compounds. Concentrations of PGE2 are then added to the plate in order to assess the antagonist properties of the compounds.
The data so generated may be analyzed by means of a computerised curve-fitting routine. The concentration of compound that elicits a half-maximal inhibition of the calcium mobilization induced by PGE2 (pIC50) may then be estimated.
The compounds of Examples 1-28 and 30-156 were tested in the human EP1 calcium mobilization assay. The results are expressed as functional pKi values. A functional pKi is the negative logarithms of the antagonist dissociation constant as determined in the human EP1 calcium mobilization assay. The results given are averages of a number of experiments.

functional pKi in the human EP1 calcium mobilization assay | SMILES
did not show activity | Cl.N#Cc1ccc(-c2cc3cc(Cl)cc(Cc4ccc(C(=O)NCC5CCNCC5)o4)c3o2)cc1 [Example 37, 5-{[5-Chloro-2-(4-cyanophenyl)-1-benzofuran-7-yl]methyl}-N-(4-piperidinylmethyl)-2-furancarboxamide hydrochloride]
did not show activity | Cc1cc(C(=O)Nc2ccncc2)nn1Cc1cc(Cl)cc2cc(-c3ccccc3)oc12 [Example 68, 1-[(5-chloro-2-phenyl-1-benzofuran-7-yl)methyl]-5-methyl-N-4-pyridinyl-1H-pyrazole-3-carboxamide]
did not show activity | Cc1cc(C(=O)NC(C)(C)C)nn1Cc1cc(Cl)cc2cc(-c3ccc(F)cc3F)oc12 [Example 112, 1-{[5-chloro-2-(2,4-difluorophenyl)-1-benzofuran-7-yl]methyl}-N-(1,1-dimethylethyl)-5-methyl-1H-pyrazole-3-carboxamide]
did not show activity | CC(C)(C)OC(=O)Nc1ccc(Cc2cc(Cl)cc3cc(-c4ccccc4)oc23)o1 [Example 156, 1,1-Dimethylethyl {5-[(5-chloro-2-phenyl-1-benzofuran-7-yl)methyl]-2-furanyl}carbamate]
